Results reported in patent US12509444B2, “Compounds and methods for CD73 modulation and indications therefor” (Plexxikon Inc., priority 2019, dated 2025).

These molecules were tested against T1, Human CD73 (amino acid residues 27-549) (Homo sapiens, UniProt P21589) (assay: CD73 enzymatic assay (luciferase-based indirect assay, CellTiter-Glo)). Details: 0.4 nM CD73, 150 μM AMP, 1 hour at room temperature.
T1 construct: Human CD73 (amino acid residues 27-549); His tag (N); made in house; host or cells: E. coli
T1 sequence (P21589 27-549): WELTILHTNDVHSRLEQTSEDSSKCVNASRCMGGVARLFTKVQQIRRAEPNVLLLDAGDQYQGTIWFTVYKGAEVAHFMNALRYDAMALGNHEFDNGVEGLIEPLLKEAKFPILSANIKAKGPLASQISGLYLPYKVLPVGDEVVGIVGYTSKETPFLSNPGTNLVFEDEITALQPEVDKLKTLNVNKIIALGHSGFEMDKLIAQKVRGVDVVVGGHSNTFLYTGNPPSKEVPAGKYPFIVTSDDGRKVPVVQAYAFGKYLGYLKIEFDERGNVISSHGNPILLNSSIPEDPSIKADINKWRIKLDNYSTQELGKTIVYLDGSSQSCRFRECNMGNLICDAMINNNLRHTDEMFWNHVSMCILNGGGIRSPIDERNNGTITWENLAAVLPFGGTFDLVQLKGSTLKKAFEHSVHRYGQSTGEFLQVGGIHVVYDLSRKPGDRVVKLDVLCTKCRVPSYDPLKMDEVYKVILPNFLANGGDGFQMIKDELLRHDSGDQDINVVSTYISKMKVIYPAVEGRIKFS
Assay type: biochemical
Procedure: CD73 enzymatic activity was measured in a luciferase-based indirect assay using CellTiter-Glo® system from Promega. The luciferase reaction in the presence of ATP is inhibited by AMP, a primary substrate of CD73. Addition of CD73 enzyme to the reaction converts AMP to adenosine, and release the inhibition, producing a luminescent signal. Inhibition of CD73 leads to the decrease of this luminescent signal.
Human CD73 (amino acid residues 27-549) with N-Terminal His tag was purified in E. coli. All the assay components were prepared in 50 mM HEPEs buffer (pH 7.4) with 0.01% Tween® 20. The CD73 enzymatic assay was performed using 0.4 nM CD73 and 150 μM AMP. 9.5 μL of CD73 protein and 9.5 μL of AMP were added to the wells of a 384 well plate containing 1 μL of various concentrations of test compound or DMSO vehicle and incubated for 1 hour at room temperature. 16 wells containing CD73, AMP and 5% DMSO served as high control. 16 wells containing AMP and 5% DMSO served as low control. Enzymatic reaction was stopped and AMP level was measured indirectly by adding 5 μL of CellTiter-Glo® 2.0 reagent and 5 μL of ATP with a final concentration of 1 μM. Following incubation of the plate at room temperature for 30 minutes, luminescent signal was read on a Tecan plate reader. The percentage inhibition at individual concentrations relative to high and low controls was calculated. The data were analyzed by using nonlinear regression to generate IC50 values.

SMILES	IC50
O=C(NCC1CCS(=O)(=O)C1)N[C@@H]1CCN(c2cn[nH]c(=O)c2Cl)C1 (stereo partly drawn) [P-0006, 1-((R)-1-(5-chloro-6-oxo-1,6-dihydropyridazin-4-yl)pyrrolidin-3-yl)-3-((1,1-dioxidotetrahydrothiophen-3-yl)methyl)urea]	10 to 100 µM
O=C(Nc1cccnc1)N[C@@H]1CCN(c2cn[nH]c(=O)c2Cl)C1 [P-0009, (R)-1-(1-(5-chloro-6-oxo-1,6-dihydropyridazin-4-yl)pyrrolidin-3-yl)-3-(pyridin-3-yl)urea]	10 to 100 µM
O=C(N[C@@H]1CCN(c2cn[nH]c(=O)c2Cl)C1)Oc1ccccc1 [P-0010, phenyl (R)-(1-(5-chloro-6-oxo-1,6-dihydropyridazin-4-yl)pyrrolidin-3-yl)carbamate]	0.001 to 10 µM
Cn1cc(NC(=O)N[C@@H]2CCN(c3cn[nH]c(=O)c3Cl)C2)cn1 [P-0014, (R)-1-(1-(5-chloro-6-oxo-1,6-dihydropyridazin-4-yl)pyrrolidin-3-yl)-3-(1-methyl-1H-pyrazol-4-yl)urea]	10 to 100 µM
COCCCNC(=O)N[C@@H]1CCN(c2cn[nH]c(=O)c2Cl)C1 [P-0016, (R)-1-(1-(5-chloro-6-oxo-1,6-dihydropyridazin-4-yl)pyrrolidin-3-yl)-3-(3-methoxypropyl)urea]	10 to 100 µM
O=C(NC1CCCC1)N[C@H]1CCN(c2cn[nH]c(=O)c2Cl)C1 [P-0023, (S)-1-(1-(5-chloro-6-oxo-1,6-dihydropyridazin-4-yl)pyrrolidin-3-yl)-3-cyclopentylurea]	10 to 100 µM
O=C(NC1CCN(C(=O)C(F)(F)F)CC1)N[C@H]1CCN(c2cn[nH]c(=O)c2Cl)C1 [P-0024, (S)-1-(1-(5-chloro-6-oxo-1,6-dihydropyridazin-4-yl)pyrrolidin-3-yl)-3-(1-(2,2,2-trifluoroacetyl)piperidin-4-yl)urea]	10 to 100 µM
CCOC(=O)CCNC(=O)N[C@@H]1CCN(c2cn[nH]c(=O)c2Cl)C1 [P-0026, ethyl (R)-3-(3-(1-(5-chloro-6-oxo-1,6-dihydropyridazin-4-yl)pyrrolidin-3-yl)ureido)propanoate]	10 to 100 µM
O=C(Nc1cccc(C(F)(F)F)c1)N[C@@H]1CCN(c2cn[nH]c(=O)c2Cl)C1 [P-0028, (R)-1-(1-(5-chloro-6-oxo-1,6-dihydropyridazin-4-yl)pyrrolidin-3-yl)-3-(3-(trifluoromethyl)phenyl)urea]	10 to 100 µM
O=C(NCc1ccccc1)N[C@@H]1CCN(c2cn[nH]c(=O)c2Cl)C1 [P-0031, (R)-1-benzyl-3-(1-(5-chloro-6-oxo-1,6-dihydropyridazin-4-yl)pyrrolidin-3-yl)urea]	10 to 100 µM
O=C(NCCc1ccccc1)N[C@@H]1CCN(c2cn[nH]c(=O)c2Cl)C1 [P-0032, (R)-1-(1-(5-chloro-6-oxo-1,6-dihydropyridazin-4-yl)pyrrolidin-3-yl)-3-phenethylurea]	10 to 100 µM
COc1cccc(NC(=O)N[C@@H]2CCN(c3cn[nH]c(=O)c3Cl)C2)c1 [P-0033, (R)-1-(1-(5-chloro-6-oxo-1,6-dihydropyridazin-4-yl)pyrrolidin-3-yl)-3-(3-methoxyphenyl)urea]	10 to 100 µM
CCOc1ccc(NC(=O)N[C@@H]2CCN(c3cn[nH]c(=O)c3Cl)C2)cc1 [P-0034, (R)-1-(1-(5-chloro-6-oxo-1,6-dihydropyridazin-4-yl)pyrrolidin-3-yl)-3-(4-ethoxyphenyl)urea]	10 to 100 µM
CCOc1cccc(NC(=O)N[C@@H]2CCN(c3cn[nH]c(=O)c3Cl)C2)c1 [P-0035, (R)-1-(1-(5-chloro-6-oxo-1,6-dihydropyridazin-4-yl)pyrrolidin-3-yl)-3-(3-ethoxyphenyl)urea]	10 to 100 µM
CC(C)(C)OC(=O)N[C@@H]1CCN(c2cn[nH]c(=O)c2)C1 [P-0037, tert-butyl (R)-(1-(6-oxo-1,6-dihydropyridazin-4-yl)pyrrolidin-3-yl)carbamate]	10 to 100 µM
COc1ccc(CNC(=O)N[C@@H]2CCN(c3cn[nH]c(=O)c3Cl)C2)cc1OC [P-0040, (R)-1-(1-(5-chloro-6-oxo-1,6-dihydropyridazin-4-yl)pyrrolidin-3-yl)-3-(3,4-dimethoxybenzyl)urea]	10 to 100 µM

Next, values leading:

IC50	SMILES
0.001 to 10 µM	CCCCOC(=O)N[C@@H]1CCN(c2cn[nH]c(=O)c2Cl)C1 [P-0001, butyl (R)-(1-(5-chloro-6-oxo-1,6-dihydropyridazin-4-yl)pyrrolidin-3-yl)carbamate]
10 to 100 µM	CC(C)(C)OC(=O)N[C@H]1CCN(c2cn[nH]c(=O)c2Cl)C1 [P-0002, tert-butyl (S)-(1-(5-chloro-6-oxo-1,6-dihydropyridazin-4-yl)pyrrolidin-3-yl)carbamate]
0.001 to 10 µM	O=C(NC1CCCCCC1)N[C@@H]1CCN(c2cn[nH]c(=O)c2Cl)C1 [P-0003, (R)-1-(1-(5-chloro-6-oxo-1,6-dihydropyridazin-4-yl)pyrrolidin-3-yl)-3-cycloheptylurea]
0.001 to 10 µM	O=C(NCC1CCCC1)N[C@@H]1CCN(c2cn[nH]c(=O)c2Cl)C1 [P-0004, (R)-1-(1-(5-chloro-6-oxo-1,6-dihydropyridazin-4-yl)pyrrolidin-3-yl)-3-(cyclopentylmethyl)urea]
0.001 to 10 µM	O=C(NCC1CCOC1)N[C@@H]1CCN(c2cn[nH]c(=O)c2Cl)C1 (stereo partly drawn) [P-0005, 1-((R)-1-(5-chloro-6-oxo-1,6-dihydropyridazin-4-yl)pyrrolidin-3-yl)-3-((tetrahydrofuran-3-yl)methyl)urea]
0.001 to 10 µM	O=C(NCC1CCCCC1)N[C@@H]1CCN(c2cn[nH]c(=O)c2Cl)C1 [P-0007, (R)-1-(1-(5-chloro-6-oxo-1,6-dihydropyridazin-4-yl)pyrrolidin-3-yl)-3-(cyclohexylmethyl)urea]
0.001 to 10 µM	O=C(NCC1CCOCC1)N[C@@H]1CCN(c2cn[nH]c(=O)c2Cl)C1 [P-0008, (R)-1-(1-(5-chloro-6-oxo-1,6-dihydropyridazin-4-yl)pyrrolidin-3-yl)-3-((tetrahydro-2H-pyran-4-yl)methyl)urea]
0.001 to 10 µM	CC(C)(C)OC(=O)N[C@@H]1CCN(c2cn[nH]c(=O)c2Br)C1 [P-0011, tert-butyl (R)-(1-(5-bromo-6-oxo-1,6-dihydropyridazin-4-yl)pyrrolidin-3-yl)carbamate]
0.001 to 10 µM	Cc1occc1NC(=O)N[C@@H]1CCN(c2cn[nH]c(=O)c2Cl)C1 [P-0012, (R)-1-(1-(5-chloro-6-oxo-1,6-dihydropyridazin-4-yl)pyrrolidin-3-yl)-3-(2-methylfuran-3-yl)urea]
0.001 to 10 µM	O=C(Nc1ccsc1)N[C@@H]1CCN(c2cn[nH]c(=O)c2Cl)C1 [P-0013, (R)-1-(1-(5-chloro-6-oxo-1,6-dihydropyridazin-4-yl)pyrrolidin-3-yl)-3-(thiophen-3-yl)urea]
0.001 to 10 µM	O=C(N[C@H]1CCN(c2cn[nH]c(=O)c2Cl)C1)OC1CCCCC1 [P-0025, cyclohexyl (S)-(1-(5-chloro-6-oxo-1,6-dihydropyridazin-4-yl)pyrrolidin-3-yl)carbamate]
0.001 to 10 µM	Cc1noc(C)c1NC(=O)N[C@@H]1CCN(c2cn[nH]c(=O)c2Cl)C1 [P-0027, (R)-1-(1-(5-chloro-6-oxo-1,6-dihydropyridazin-4-yl)pyrrolidin-3-yl)-3-(3,5-dimethylisoxazol-4-yl)urea]
0.001 to 10 µM	O=C(NC1CCOCC1)N[C@@H]1CCN(c2cn[nH]c(=O)c2Cl)C1 [P-0029, (R)-1-(1-(5-chloro-6-oxo-1,6-dihydropyridazin-4-yl)pyrrolidin-3-yl)-3-(tetrahydro-2H-pyran-4-yl)urea]
0.001 to 10 µM	CC(C)(C)OC(=O)N[C@@H]1CCN(c2cn[nH]c(=O)c2C#N)C1 [P-0036, tert-butyl (R)-(1-(5-cyano-6-oxo-1,6-dihydropyridazin-4-yl)pyrrolidin-3-yl)carbamate]
0.001 to 10 µM	O=C(Nc1ccccc1)N[C@@H]1CCN(c2cn[nH]c(=O)c2Cl)C1 [P-0038, (R)-1-(1-(5-chloro-6-oxo-1,6-dihydropyridazin-4-yl)pyrrolidin-3-yl)-3-phenylurea]
0.001 to 10 µM	O=C(Nc1ccc(OC(F)(F)F)cc1)N[C@@H]1CCN(c2cn[nH]c(=O)c2Cl)C1 [P-0041, (R)-1-(1-(5-chloro-6-oxo-1,6-dihydropyridazin-4-yl)pyrrolidin-3-yl)-3-(4-(trifluoromethoxy)phenyl)urea]
0.001 to 10 µM	N#Cc1ccc(NC(=O)N[C@@H]2CCN(c3cn[nH]c(=O)c3Cl)C2)cc1 [P-0042, (R)-1-(1-(5-chloro-6-oxo-1,6-dihydropyridazin-4-yl)pyrrolidin-3-yl)-3-(4-cyanophenyl)urea]
